These results are taken from patent US20220220100A1 (SOLUTIA CANADA INC., priority 2019, published 2022).

Holding throughout (type): physicochemical
The nature of series [1]: UV/Vis absorbance at 400 nm and Yellowness Index of the ring-open isomer. Conditions: for Abs @ 400 nm, RO (Absorption of ring-open isomer at 400 nm): 2×10^−5 M solution, 1 cm pathlength cuvette. An excerpt:
In addition to the above, chromophores should have acceptable colour for both the ring-opened and ring-closed isomers. For example, the ring-open isomer of the chromophore should have a Yellowness Index (YI) of less than about 10 and an absorbance at 400 nm, as measured for a 2×10^−5 M solution in a 1 cm pathlength cuvette. For the ring-closed isomer of the chromophore, the lambda max should be between about 475 nm and 700 nm, tunable according to desired colour and number of chromophores in the composition.
UV/Vis spectra were obtained using an OceanOptics™ Spectrophotometer. A 2×10^−5 M solution of compound in solvent was prepared, and photofaded using visible light until absorption in the visible region of the spectrum stabilized. The sample was then irradiated with simulated sunlight (QSUN SS-150 Solar Simulator with xenon arc lamp) until the absorption spectrum stabilized. To obtain PSS in the presence of a UV blocking film, a second sample was prepared and irradiated as described, with a UV blocking film inserted in the light path when irradiating.

Series [2] is described as follows: Solubility in Rhodiasolv IRIS solvent. Conditions: Rhodiasolv IRIS (dimethyl-2-methyl glutarate); wt %. The source says: A compound with greater solubility allows for a formulation or material with a greater concentration of coloured molecule to be incorporated into a composition. This may allow for increasing the contrast ratio for a compound with a lesser absorbance at PSS. Examples of solubilizing groups for the compound include alkoxy, ether, ester or siloxy groups. In various embodiments, compounds may be soluble in the solvent component at room temperature at about 6 wt %, 7 wt %, 8 wt %, 9 wt %, 10 wt % or greater for testing to determine whether a compound has application as an exterior glazing or optical filter. If the solubility of a compound in the solvent component is too low, then insufficient darkening may be achieved in the ring-closed configuration, depending on conditions of use for the compound.
(§1) Chromophore solutions in Rhodiasolv IRIS were prepared at 1 to 10 wt % loading. Solutions were prepared in a glovebox by charging the chromophore and Rhodiasolv IRIS to a trace-clean vial, and the solution was stirred on a hotplate at 90° C. for 2-24 hours. After cooling, the chromophore solution was injected into glass weathering cells and the fill and vent ports were sealed with a thin disc of Kalrez (FFKM Perfluorinated Elastomer) and secured with a clamp and set-screw. The weathering cells were filled and sealed inside the glove box.

Series [3] can be described thus: Oxidation potential of ring-closed and ring-open isomers. The following applies: no unit printed in table (V relative to Ag/AgCl). The source says:
In various embodiments, at a PSS, some of the chromophore will be in the ring-closed isomer, with a small, but non-zero portion of ring-open isomer. The oxidation potential of a ring-open isomer may be more anodic than the oxidation potential of a ring-closed isomer. Exposure to a potential that is too far beyond what is necessary to oxidize the ring-closed isomer may result in oxidation of the ring-open isomer, which may be irreversible and result in electrochemically-induced degradation of the chromophore.
Thus, in various embodiments, an anodic chromophore may have an oxidation potential of from about 0.4 V to 1.2 V for the ring-closed isomer and about 1.0 V to 2.5 V for the ring-open isomer relative to an Ag/AgCl reference electrode. In various embodiments, the oxidation potential for the ring-open isomer is about 250 mV more anodic than the oxidation potential for the ring-closed isomer. For example, the oxidation potential may be about 260 mV, about 280 mV, about 300 mV, about 320 mV, about 340 mV, about 360 mV, about 380 mV, about 400 mV, about 420 mV, about 440 mV, or about 460 mV more anodic than the oxidation potential for the ring-closed isomer.

A short description of series [4]: Photostability: xenon arc weathering of chromophore solutions, LCMS analysis. Conditions: for Ketone (%) / Minus-2HF (%) / Minus-HF (%) / Sulfone (%) / Chromophore Remaining (%): xenon arc, 82° C. bp; for Ketone (%) / Minus-2HF (%) / Minus-HF (%) / Sulfone (%): linearly interpolated to 0.5 MJ/m2 @ 340 nm; for Chromophore Remaining (%): linearly interpolated to 0.5 MJ/m2 @ 340 nm of exposure energy; for Photostability (in words): weathering experiments.
Description: Photostability (resistance to light-induced degradation) may be measured by the amount of time required for the compound, or a material comprising the compound, to degrade to a certain point under light exposure. The light exposure may be constant, or cyclic. The light transmittance or absorbance of the compound, or material comprising the compound, may be determined at both a light state and dark state prior to testing, to determine a contrast ratio. During testing, the contrast ratio may be monitored (periodically or continually), the compound or material may be determined to have failed when the contrast ratio falls outside, or below, a selected range, or when the contrast ratio decreases to a percentage of the original contrast ratio. Photostability may also be expressed with reference to a light source or with reference to a type of light.
as §1
Measurement of Photostability
A. Fabrication of cuvettes. Two holes of 0.8 mm diameter were drilled at opposite ends in a 75×50 mm piece of float glass using a diamond drill bit in a rotary tool. The drilled glass and a matching piece of undrilled glass were then cleaned using hot soapy water, rinsed with deionized water and acetone and then dried with compressed air. A 5 mm wide frame was cut from a sheet of 50 μm thickness EVAL EF-F using a laser engraver. The EVAL frame was placed around the perimeter of one sheet of glass and sandwiched by the second sheet of glass. The glass-EVAL-glass sandwich was secured with tape and heated under vacuum (10 mmHg) for 30 minutes at 170° C. in a vacuum bag. After cooling, a third piece of float glass was PVB laminated to the non-drilled side of the sealed glass cells using Trosifol UV Extra Protect B150 PVB (400 nm UV cut-off).
B. Xenon arc weathering protocol. Devices were exposed to simulated weathering conditions inside a Xe-3-HS xenon arc chamber, manufactured by Q-labs Inc. The samples were weathered according to the following table. The devices were exposed to these conditions continuously, with no dark or spray cycles included.
C. Analysis of weathered chromophore solutions by LCMS. The set-screws, metal clamps and Kalrez plugs were removed from the cuvette to expose the fill port. A 5 mL plastic syringe (NORM-JECT®) equipped with a tip (Precision Tips, 0.010″ RED) was inserted into one fill port and the chromophore solution was withdrawn from the cuvette. The chromophore solution was then injected into a 2 mL amber vial (part number 5182-0716, Agilent Technology) prefilled with 1.5 mL LC-MS grade acetonitrile (HiPerSolbe CHROMANORM Acetonitrile, VWR BDH Chemicals). An aliquot of the acetonitrile solution (2 μL) was injected into the LC-MS system (Agilent Infinity 1290 LC-MS system with diode array detector) through an autosampler mechanism. Species in the injected sample were separated through a reverse phase column (Zorbax SB-C18, 2.1×50 mm, 1.8 μm, operated at 40° C.), using a mixture of acetonitrile (mixed with 1% formic acid v/v ratio), methanol (HiPerSolbe CHROMANORM Methanol, VWR BDH Chemicals) and water (HiPerSolbe CHROMANORM Water, VWR BDH Chemicals) as mobile phase.

Where [5] appears, read: 3 wt %, interpolated to 0.5 MJ/m^2 of energy exposure at 340 nm.
[6] abbreviates: 1 wt %, interpolated to 0.5 MJ/m^2 of energy exposure at 340 nm.
Setting [7] is: 10 wt %, interpolated to 0.5 MJ/m^2 of energy exposure at 340 nm.

As for `COc1ccc2c(C3=C(c4cc(-c5ccc(C(C)(C)C)s5)sc4-c4ccc(C(C)(C)C)s4)C(F)(F)C(F)(F)C3(F)F)c(-c3ccc(C(C)(C)C)cc3)oc2c1`, in series [1], the “YI (Yellowness Index)” value was determined as 3.32 and the “Abs @ 400 nm, RO (Absorption of ring-open isomer at 400 nm)” value (“Abs @ 400 nm, RO” for short) is listed as 0.0809. Also, in series [2], the “Solubility in Rhodiasolv IRIS” value is listed as below 3%. In series [3], the “RC [O] (oxidation potential of ring-closed isomer)” value (shortened to “RC [O]”) turned out to be 1 and the “RO [O] (oxidation potential of ring-open isomer)” value (from here on “RO [O]”) is 1.38. For the same compound, in series [4] (3 wt % in Rhodiasolv IRIS), the “Ketone (%)” value is recorded as 0.0%, the “Minus-2HF (%)” value was 1.9%, the “Minus-HF (%)” value is 6.9% and the “Sulfone (%)” value worked out at 0.0%. Further, in series [4] (3 wt % in Rhodiasolv IRIS), the “Chromophore Remaining (%)” value is 86.9%. Besides, in series [4] (setting [5]), the “Ratio of chromophore remaining relative to S340” value worked out at 0.95. Further, in series [4], the “Photostability (in words)” value is “more rapid degradation compared to S340”.
Regarding `COc1cc2oc(-c3ccc(C(C)(C)C)cc3)c(C3=C(c4cc(-c5cc6c(s5)C(C)(C)CCC6(C)C)sc4-c4cc5c(s4)C(C)(C)CCC5(C)C)C(F)(F)C(F)(F)C3(F)F)c2cc1OC`, in series [1], the “YI (Yellowness Index)” value stood at 8.12 and the “Abs @ 400 nm, RO” value came out at 0.131. Besides, the “Solubility in Rhodiasolv IRIS” value in series [2] is given as below 3%. Further, in series [3], the “RC [O]” value stood at 0.91 and the “RO [O]” value is reported as 1.29. In series [4] (1 wt % in Rhodiasolv IRIS), the “Ketone (%)” value was found to be 3.3%, the “Minus-2HF (%)” value is given as 0.0%, the “Minus-HF (%)” value is 1.3% and the “Sulfone (%)” value amounted to 3.1%. Further, the “Chromophore Remaining (%)” value in series [4] (1 wt % in Rhodiasolv IRIS) was determined as 92.3%. In addition, in series [4] (setting [6]), the “Ratio of chromophore remaining relative to S340” value amounted to 1.01 and the “Sum of degradation product percentages relative to the sum of degradation product percentages for S340” value stood at 0.87. Also, the “Photostability (in words)” value in series [4] is given as “high photostability”.
As for `COCCCOc1cc2oc(-c3ccc(C(C)(C)C)cc3)c(C3=C(c4cc(-c5cc(C(C)(C)C)cs5)sc4-c4cc(C(C)(C)C)cs4)C(F)(F)C(F)(F)C3(F)F)c2cc1OCCCOC`, in series [1], the “YI (Yellowness Index)” value is listed as 4.29 and the “Abs @ 400 nm, RO” value was determined as 0.103. Further, the “Solubility in Rhodiasolv IRIS” value in series [2] is above 10%. For the same compound, in series [3], the “RC [O]” value was 0.95 and the “RO [O]” value is 1.39. Besides, in series [4], the “Formation of the Minus-HF degradation product (in words)” value is reported as “prevents the Minus-HF product” and the “Photostability (in words)” value is reported as “high photostability”. Also, in series [4] (10 wt % in Rhodiasolv IRIS), the “Ketone (%)” value is recorded as 0.0%, the “Minus-2HF (%)” value worked out at 0.0%, the “Minus-HF (%)” value stood at 0.0% and the “Sulfone (%)” value is 0.1%. In addition, the “Chromophore Remaining (%)” value in series [4] (10 wt % in Rhodiasolv IRIS) is 98.6%. Further, the “Ratio of chromophore remaining relative to S340” value in series [4] (setting [7]) came to 1.08.
On to `CC(C)(C)c1ccc(-c2oc3cc(OCCN4C(=O)CCC4=O)c(OCCN4C(=O)CCC4=O)cc3c2C2=C(c3cc(-c4cc(C(C)(C)C)cs4)sc3-c3cc(C(C)(C)C)cs3)C(F)(F)C(F)(F)C2(F)F)cc1`, for which, in series [1], the “YI (Yellowness Index)” value was 4.72 and the “Abs @ 400 nm, RO” value is reported as 0.136. Besides, the “Solubility in Rhodiasolv IRIS” value in series [2] is reported as above 10%. In addition, in series [3], the “RC [O]” value is recorded as 1.05 and the “RO [O]” value is reported as 1.42. In series [4] (10 wt % in Rhodiasolv IRIS), the “Ketone (%)” value turned out to be 0.0%, the “Minus-2HF (%)” value was found to be 0.0%, the “Minus-HF (%)” value came out at 0.0% and the “Sulfone (%)” value amounted to 0.0%. Besides, in series [4] (10 wt % in Rhodiasolv IRIS), the “Chromophore Remaining (%)” value was determined as 95.3%. Also, the “Ratio of chromophore remaining relative to S340” value in series [4] (setting [7]) is listed as 1.05. The “Photostability (in words)” value in series [4] is given as “high photostability”.
For `COc1cc2oc(-c3ccc(C(C)(C)C)cc3)c(C3=C(c4cc(-c5ccc(C(C)(C)C)s5)sc4-c4ccc(C(C)(C)C)s4)C(F)(F)C(F)(F)C3(F)F)c2cc1OC` [Chromophore S340, 2-(4-(tert-butyl)phenyl)-3-(2-(5,5″-di-tert-butyl-[2,2′:5′,2″-terthiophen]-3′-yl)-3,3,4,4,5,5-hexafluorocyclopent-1-en-1-yl)-5,6-dimethoxybenzofuran], in series [1], the “YI (Yellowness Index)” value is on record as 5.61 and the “Abs @ 400 nm, RO” value is given as 0.128. Also, the “Solubility in Rhodiasolv IRIS” value in series [2] came to 7%. In series [3], the “RC [O]” value is 0.95 and the “RO [O]” value came to 1.35. Moreover, in series [4] (3 wt % in Rhodiasolv IRIS), the “Ketone (%)” value was 0.0%, the “Minus-2HF (%)” value was found to be 1.0%, the “Minus-HF (%)” value came out at 3.5% and the “Sulfone (%)” value is given as 0.0%. Also, the “Chromophore Remaining (%)” value in series [4] (3 wt % in Rhodiasolv IRIS) came to 91.1%. In addition, the “Ratio of chromophore remaining relative to S340” value in series [4] (setting [5]) was 1.00. In addition, the “Photostability (in words)” value in series [4] is listed as “acceptable photostability”.
